Experimental data from patent US20040235856A1, “Treatment of incontinence” (Pfizer Inc, priority 2003, published 2004).
Values joined by “and” are separate entries in the source; they are usually repeats but may differ in a detail not shown here. Identical values can stand only once.

Key:
[1] = test system: ovariectomised, birth traumatised rats; assay: Leak point pressure in ovariectomised, birth traumatised female rats; assay type: in vivo, Sprague Dawley rats
Protocol: In order to evaluate whether the effects of 5-HT2C agonists on urethral function was present in species other than the guinea pig, leak point pressure was measured in the absence and presence of MK-212 in a known model of urethral function in the rat (Lin A. S. et al. (1998) Urology 52:143-51; Sievert K. D. et al. (2001) J Urol. 166, 311-317; Resplande J et al (2002) J Urol. 168, 323-30), namely ovariectomised, birth traumatised rats.
Ovariectomy and simulated birth trauma were carried out on 8 female Sprague Dawley rats as described previously (Lin A. S. et al. (1998) Urology 52:143-51; Sievert K. D. et al. (2001) J Urol. 166, 311-317; Resplande J et al (2002) J Urol. 168, 323-30). Six weeks subsequent to recovery all animals underwent investigation of leak point pressure, initially rats were anaesthetised with halothane (4%), carried in oxygen (3-4L min^−1) and were maintained at an appropriate surgical plane with urethane (25% w/v; 0.5 ml 100 g^−1 body weight). The trachea, a jugular vein and a carotid artery were cannulated for respiratory ventilation, injection of test compound and monitoring of blood pressure, respectively. A midline laporatomy was performed to expose the urinary bladder and a cystometry tube was inserted through a small incision in the dome of the bladder and secured in place. The abdominal wound was closed tightly around the externalised cystometry tube, which, in turn, was connected to an infusion pump and pressure transducer, for filling the bladder and for recording intravesical pressure, respectively. Baseline leak point pressures (LPP) were established by slow elevation of a saline containing bag connected to the bladder and pressure transducer via the cystometry tube. LPP was defined as the bladder pressure at the point where fluid was first noted at the urethral meatus. Between 4 and 7 baseline readings were made before iv bolus administration of MK-212 (0.1 mg kg^−1). Following a 2 min delay to allow for distribution LPP measurements were repeated in an identical manner to that described above, between 3 and 8 measures were taken.

mice = conditions: subcutaneous administration; only significant at the highest dose tested; cited from earlier work
anaesthetised guinea pig [2] = assay: EUS EMG activity during normal bladder filling in anaesthetised guinea pig; assay type: in vivo
Excerpt: (§1) In order to explore what subtypes of 5-HT receptors may be involved in enhancing the sacral spinal drive to the EUS, the effects of m-CPP (Sigma Aldrich Product number C-5554), MK-212 (Tocris Cat No 0941), YM-348 (WO 01/83487), Ro 60-0175 (Tocris Cat No 1854), WAY-161503 (Tocris Cat No 1801), and Example 1-N in WO 03/000663, which have been reported to be 5-HT2C receptor agonists, were investigated in an anaesthetised guinea pig model specifically designed to measure urethral continence mechanisms and leak point pressure using two paradigms. Firstly the activity of urethral striated musculature in response to increased abdominal pressure and so the pressure required to induce leak and secondly, the response of urethral striated musculature during normal bladder filling so as to maintain continence, as measured by changes in electromyographic activity of this continence maintaining sphincter.
Experiments were performed in adult female guinea pigs, weighing 620-707 g. All animals were initially anaesthetised with halothane (4%), carried in oxygen (3-4L min^−1) and were maintained at an appropriate surgical plane with urethane (25% w/v; 0.5 ml 100 g^−1 body weight). The trachea, a jugular vein and a carotid artery were cannulated for respiratory ventilation, injection of test compound and monitoring of blood pressure, respectively. A midline laporatomy was performed to expose the urinary bladder and a cystometry tube was inserted through a small incision in the dome of the bladder and secured in place. The abdominal wound was closed tightly around the externalised cystometry tube, which, in turn, was connected to an infusion pump and pressure transducer, for filling the bladder and for recording intravesical pressure, respectively. […]
Following a 30 min post surgery stabilisation period, the bladder was filled at a rate of 150 μl min^−1 with physiological saline (room temperature), until initiation of a micturition reflex or leak was observed. […] Additionally, EUS EMG activity and intravesical pressures were recorded throughout bladder filling. […]

anaesthetised guinea pig [3] = assay: Abdominal weight inducing micturition or leak and EUS EMG activity in anaesthetised guinea pig; assay type: in vivo; conditions: for % of Control Abdominal Weight Inducing Micturition or Leak: bladder at 75% of threshold volume
Excerpt: as §1
Experiments were performed in adult female guinea pigs, weighing 620-707 g. All animals were initially anaesthetised with halothane (4%), carried in oxygen (3-4L min^−1) and were maintained at an appropriate surgical plane with urethane (25% w/v; 0.5 ml 100 g^−1 body weight). The trachea, a jugular vein and a carotid artery were cannulated for respiratory ventilation, injection of test compound and monitoring of blood pressure, respectively. A midline laporatomy was performed to expose the urinary bladder and a cystometry tube was inserted through a small incision in the dome of the bladder and secured in place. The abdominal wound was closed tightly around the externalised cystometry tube, which, in turn, was connected to an infusion pump and pressure transducer, for filling the bladder and for recording intravesical pressure, respectively. Electromyographic (EMG) wire leads were inserted into the EUS striated muscle layer opposed to the dorsal surface of the symphysis pubis.
Following a 30 min post surgery stabilisation period, the bladder was filled at a rate of 150 μl min^−1 with physiological saline (room temperature), until initiation of a micturition reflex or leak was observed. Following micturition or leak, the bladder was drained via the externalised cystometry tube. Bladder filling was repeated at least 3 times in order to establish a mean bladder threshold capacity for initiation of micturition or leak. Additionally, EUS EMG activity and intravesical pressures were recorded throughout bladder filling. Subsequently 1 of 2 protocols was carried out.
1. Once a threshold bladder volume, which induced micturition or leak, was established, 75% of this volume was used for the next stage of the experiment. The bladder was filled (150 μl min^−1) to 75% of threshold volume with physiological saline and, through the use of a specially constructed frame, weights were positioned on the ventral surface of the abdomen of the animal just rostral to the position of the bladder. Starting at 50 g, then 60 g and then at increasing increments of 20 g, weights were placed on the animal's abdomen until micturition/leakage of fluid was observed. EUS EMG activity and intravesical pressure were recorded while weights were applied to the abdomen. The main parameters investigated were minimum abdominal weight required to induce micturition or leak at 75% of bladder threshold volume, and maximum EUS EMG activity at micturition or leak. Test drug or vehicle was injected intravenously immediately after the bladder was filled to 75% of threshold volume, and 60-120 sec before applying the first abdominal weight (50 g).
Agonists were tested at doses between 0.1 and 3.0 mg kg^−1. In addition the effect of the reported 5-HT2C selective antagonist SB 242084 (Sigma, Cat-No: S-8061) (1 mg kg^−1) on agonist-induced effects was investigated in some animals.

[4] = 0.1 mg/kg iv bolus, individual animals 1-8
[5] = 0.3 mg kg^-1, filling 150 μl min^-1, FIG. 1b

In the case of `Clc1cncc(N2CCNCC2)n1` [MK-212], the “animals in which LPP pressure increased” value ([1]; 0.1 mg kg^-1) is reported as 7 of 8, the “mean increase in LPP (mean ± standard deviation)” value ([1]; 0.1 mg kg^-1, N=7) is reported as 7.1±2.6 mmHg and the “Increase in LPP over baseline” value [1, 4] is reported as 10.2 mmHg and 5.5 mmHg and 7.0 mmHg and 0.4 mmHg and 3.6 mmHg and 6.0 mmHg and 10.9 mmHg and 6.7 mmHg. For the same molecule, the “LPP (mean ± SD) after MK-212” value [1, 4] was 30.6 (3.8) mmHg and 23.4 (3.4) mmHg and 21.8 (1.7) mmHg and 18.2 (1.5) mmHg and 27.6 (1.5) mmHg and 30.7 (1.2) mmHg and 33.5 (1.6) mmHg and 23.0 (2.6) mmHg.

In the case of `FC(F)(F)c1ccc(N2CCNCC2)nc1Cl` [Org-12962, 1-[6-chloro-5-(trifluoromethyl)-2-pyridinyl]piperazine], the “urine wet spot size” value (mice) is given as “reduce urine wet spot size”.

In the case of `Cc1cc2c(cc1Cl)N(C(=O)Nc1ccc(Oc3cccnc3C)nc1)CC2` [SB 242084], the “effect of antagonist on agonist-induced effects” value (anaesthetised guinea pig [2]; 1 mg kg^-1, in those animals tested) is reported as “abolished the effects of applied 5HT2c agonists”.

With `O=C1Nc2cc(Cl)c(Cl)cc2N2CCNCC12` (stereo not shown) [Way 161503] the “EUS EMG activity during normal bladder filling” value (anaesthetised guinea pig [2]; [5]) was “potentiated” and the “bladder volume at which EUS EMG activity increases” value (anaesthetised guinea pig [2]; [5]) was “increases in activity occurred at lower bladder volumes than in drug free conditions”.

In the case of `Clc1cccc(N2CCNCC2)c1` [m-CPP, m-chlorophenylpiperazine], the “% of Control EUS EMG Activity” value (anaesthetised guinea pig [3]; 0.3 mg kg^-1 iv.) is reported as 110 ± 43 % of Control, the “% of Control Abdominal Weight Inducing Micturition or Leak” value (anaesthetised guinea pig [3]; 0.3 mg kg^-1 iv.) is reported as 128 ± 6 % of Control and the “% of Control EUS EMG Activity” value (anaesthetised guinea pig [3]; 1.0 mg kg^-1 iv.) is reported as 135 ± 10 % of Control. The “% of Control Abdominal Weight Inducing Micturition or Leak” value (anaesthetised guinea pig [3]; 1.0 mg kg^-1 iv.) was 139 ± 12 % of Control, the “increase in EUS EMG activity compared with controls” value (anaesthetised guinea pig [3]; 3.0 mg kg^-1) was 56% and the “increase of the weight required to induce micturition or leak compared with controls” value (anaesthetised guinea pig [3]; 3.0 mg kg^-1) was 66%. The “% of Control EUS EMG Activity” value (anaesthetised guinea pig [3]; 3.0 mg kg^-1 iv.) was 156 ± 18 % of Control and the “% of Control Abdominal Weight Inducing Micturition or Leak” value (anaesthetised guinea pig [3]; 3.0 mg kg^-1 iv.) was 166 ± 9 % of Control.
